Earlier results on two compounds are cited in patent US20060200870A1, “Methods of treating muscular dystrophy” (priority 2004, published 2006).

Entries after “also recorded” stand apart in the source; their conditions may differ.

The test system of one data set is patients with DMD. The following applies: 0.75 mg/kg in intermittent regimens.
Another data set relates to humans with DMD. To be noted: humans (males) with DMD.
The subject of data set [1] is derangements or deficiencies in AGAT activity. The following applies: oral creatine.

In the case of `C[C@]12C=CC(=O)C=C1CC[C@@H]1[C@@H]2C(=O)C[C@@]2(C)[C@H]1CC[C@]2(O)C(=O)CO` [prednisone], in the data set on patients with DMD (some patients), the independent ambulation result is listed as “can help prolong independent ambulation”. Moreover, the adverse side-effects result with patients with DMD (weight-gain, osteopenia, hirsutism, cushingoid facies, behavioral and endocrinology-related issues) is on record as “significant adverse side-effects”.
As to `CN(CC(=O)O)C(=N)N` [creatine], the “benefit / therapeutic effect of oral creatine supplementation” value in the data set with humans with DMD is reported as “no such clear benefit; also recorded: has not been shown to have a significant therapeutic effect”. Further, the “benefit of oral creatine supplementation” value with mdx mice is reported as “some benefits”. The “success in overcoming derangements or deficiencies in AGAT activity” value in data set [1] is “partially successful”.
